Inhibition and mortality data for four molecules are collected here from US11882835B2, “Benzimidazole compound having an optionally halogenated alkylenedioxy group or salt thereof, agricultural and horticultural insecticide comprising the compound or the salt, and method for using the insecticide” (NIHON NOHYAKU CO., LTD., priority 2018, dated 2024).

The test system of one experiment is Dirofilaria immitis. The experiment in a line: Larval motility assay on Dirofilaria immitis. The format is in vivo. Conditions: 72 h, 3 days, relative to DMSO only, read-out: percent motility inhibition, D. immitis L1 stage larvae. The procedure: Larval Motility Assay on Dirofilaria immitis
Five hundred L1 stage larvae of D. immitis were diluted in a predetermined conditioned medium and introduced into each well of a 96-well plate. DMSO diluted solutions of various compounds of the present invention were added at the final concentration of 50 ppm to the wells of the 96-well plate. The plate was allowed to stand for 3 days, and then larval motility was examined. The percent motility inhibition in the wells of each treatment was calculated relative to the wells of treatment with DMSO only.

Another experiment has as its system Ctenocephalides felis. In words: Assay for oral parasiticidal activity against adults of Ctenocephalides felis. The format is in vivo. As to conditions: read-out: mortality rate, adults of C. felis. The procedure: Assay for Oral Parasiticidal Activity Against Adults of Ctenocephalides felis
Newly-emerged adults of C. felis were placed into test cages (10 adults per test cage). DMSO diluted solutions of various compounds of the present invention were added to aliquots of bovine blood at the final concentration of 50 ppm and orally administered to the adults of C. felis using a feeder. The mortality rate was examined on the following day. Aberrant adults were regarded as the dead.

The subject of a further experiment is Rhipicephalus sanguineus. The experiment in a line: Assay for transdermal parasiticidal activity against nymphs of Rhipicephalus sanguineus. It counts as in vivo. Conditions: 48 h, read-out: mortality rate, nymphs of R. sanguineus. From the text:
Assay for Transdermal Parasiticidal Activity Against Nymphs of Rhipicephalus sanguineus
DMSO diluted solutions of various compounds of the present invention were individually diluted to the final concentration of 100 ppm with an acetone/triton solution and applied to the inside of vented sample bottles. After overnight drying, ten nymphs of R. sanguineus were introduced into each bottle, and the mortality rate was examined two days later. Aberrant adults were regarded as the dead.

The next experiment has as its system Haemonchus contortus. The experiment in a line: Larval motility assay on Haemonchus contortus. It counts as in vivo. As to conditions: 96 h, 4 days, relative to DMSO only, read-out: percent motility inhibition, H. contortus L1 stage larvae. The protocol: Larval motility assay on Haemonchus contortus DMSO diluted solutions of various compounds of the present invention were added at the final concentration of 50 ppm to the wells of a 96-well plate containing a predetermined conditioned medium. Twenty L1 stage larvae of H. contortus were introduced into each well of the 96-well plate. The plate was allowed to stand for 4 days, and then larval motility was examined. The percent motility inhibition in the wells of each treatment was calculated relative to the wells of treatment with DMSO only.

For the next experiment, the system named is Laodelphax striatellus. The experiment in a line: Insecticidal test on Laodelphax striatellus (rice seedling dip). Conditions: in Oryza sativa, 192 h, read-out: activity level (corrected mortality rate) of L. striatellus.
A further experiment has as its system Plutella xylostella. In words: whole plant or invertebrate. As to conditions: in Brassica rapa, 144 h, read-out: activity level (corrected mortality rate) of P. xylostella.

Consider `CCS(=O)(=O)c1cc(C2CC2)cnc1-c1nc2cc3c(cc2n1C)OC(F)(F)O3` [Compound 1-3, 6-(5-cyclopropyl-3-ethylsulfonyl-pyridin-2-yl)-2,2-difluoro-5-methyl-5H-[1,3]dioxolo[4′,5′:4,5]benzo[1,2-d]imidazole], for which the inhibition at 50 ppm in the experiment on Dirofilaria immitis and with Haemonchus contortus was at least 50% throughout. For the same molecule, the mortality at 50 ppm in the experiment on Ctenocephalides felis was at least 50%. Moreover, the mortality at 100 ppm in the experiment with Rhipicephalus sanguineus was at least 50%. Further, the mortality at 500 ppm in the experiment on Laodelphax striatellus and in the experiment on Plutella xylostella was 100% throughout.

As to `CCSc1cc(C2CC2)cnc1-c1nc2cc3c(cc2n1C(F)F)OC(F)(F)O3` [Compound 1-7, 6-(5-cyclopropyl-3-ethylthiopyridin-2-yl)-2,2-difluoro-5-di fluoromethyl-5H-[1,3]dioxolo[4′,5′:4,5]benzo[1,2-d]imidazole], in the experiment on Plutella xylostella, the mortality at 500 ppm is 100%.

For `CCSc1cc(C2CC2)cnc1-c1nc2cc3c(cc2n1C)OC(F)(F)O3` [Compound 1-1, 6-(5-cyclopropyl-3-ethylthiopyridin-2-yl)-2,2-difluoro-5-me thyl-5H-[1,3]dioxolo[4′,5′:4,5]benzo[1,2-d]imidazole], the mortality at 500 ppm in the experiment on Laodelphax striatellus and in the experiment with Plutella xylostella was 100% throughout.

In the case of `CCS(=O)(=O)c1cc(C2CC2)cnc1-c1nc2cc3c(cc2n1C(F)F)OC(F)(F)O3` [Compound 1-9, 6-(5-cyclopropyl-3-ethylsulfonylpyridin-2-yl)-2,2-difluoro-5-difluoromethyl-5H-[1,3]dioxolo[4′,5′:4,5]benzo[1,2-d]imid azole], the mortality at 500 ppm with Plutella xylostella turned out to be 100%.
